The values below come from patent US12569437B2, “Disease-site-specific liposomal formulation” (Osaka University, priority 2017, dated 2026).

For the assay, the system named is rat monocrotaline (MCT)-induced severe heart failure (pulmonary hypertension) model. The assay can be described thus: Survival rate in rat monocrotaline-induced pulmonary hypertension model. Format: in vivo. Particulars: 42 days after MCT; oral 50 mg/kg × twice/day from day 7. The source says:
The produced Formulation 21 (ONO-1301Lipo formulation) as a test substance was intermittently administered intravenously once weekly to a rat monocrotaline (MCT)-induced severe heart failure (pulmonary hypertension) model from day 7 of the MCT administration, and the survival rate was compared with a group in which compound (A) (ONO-1301) was repeatedly orally administered; a group in which compound (A) was intermittently administered intravenously once weekly; and, as a positive control, a group in which an ET-1 antagonist (bosentan) was orally administered. In the control group, physiological saline (vehicle) was administered once weekly by intravenous administration.
For animals, Slc: Wistar male rats, 5 weeks old at the start of the test, and 66.4 to 90.8 g at arrival (Japan SLC, Inc.) were used. Monocrotaline (hereinafter referred to as “MCT”), lot No.: SLBG1999V (Sigma-Aldrich Corporation), was administered once subcutaneously at the back of the rats at a dose of 60 mg/kg. Six days after the MCT administration, the animals were divided into groups according to the weight stratification assignment method (Table 19).

The structures appear in SMILES notation.

As for `COc1ccccc1Oc1c(NS(=O)(=O)c2ccc(C(C)(C)C)cc2)nc(-c2ncccn2)nc1OCCO` [Bosentan], the “Survival rate (%)” value is 30%.
